We go through six compounds from publication PMC6457931 (Science Advances, 2019).

One series addresses 229E S protein (Human coronavirus 229E, UniProt P15423). The series can be described thus: cell-based. Set-up: species or system HCoV-229E.
In a further series the target is NL63 S protein (Human coronavirus NL63, UniProt Q6Q1S2). The series can be described thus: cell-based. Further details: species or system HCoV-NL63.
A further series addresses OC43 S protein (Human coronavirus OC43, UniProt P36334). The series can be described thus: cell-based. Particulars: Inhibitory activity of peptides, IC50, HCoV-OC43 cell-cell fusion assay.
The subject of another series is OC43. Particulars: read-out: IC50, live OC43 infection; HCT-8 cells, 100 TCID50, day 5.
The test system of a further series is pseudotyped 229E. Particulars: 48 h.
In the next series the test system is pseudotyped NL63. Particulars: 48 h.
The test system of the next series is pseudotyped OC43. Conditions: 48 h.
Another series has as its system NL63. Particulars: read-out: IC50, live NL63 infection; LLC-MK2 cells.
Series [1] has as its system S proteins of multiple HCoVs. It counts as cell-based.
For series [2], the target named is HR1 domain of HCoV-229E S protein (residues 785 to 873) (HCoV-229E) (UniProt P15423).
Sequence of HR1 domain of HCoV-229E S protein (residues 785 to 873) (HCoV-229E) (P15423 785-873): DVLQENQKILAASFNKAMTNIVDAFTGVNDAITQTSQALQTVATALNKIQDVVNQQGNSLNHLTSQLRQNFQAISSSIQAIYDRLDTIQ
Series [3] deals with HR1 domain of MERS-CoV S protein (residues 984 to 1062) (MERS-CoV) (UniProt K9N5Q8).
Sequence of HR1 domain of MERS-CoV S protein (residues 984 to 1062) (MERS-CoV) (K9N5Q8 984-1062): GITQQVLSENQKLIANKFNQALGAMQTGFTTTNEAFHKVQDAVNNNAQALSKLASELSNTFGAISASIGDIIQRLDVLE
Series [4] addresses HR1 domain of SARS-CoV S protein (residues 892 to 970) (SARS-CoV) (UniProt P59594).
[5] abbreviates: high or low dose, before and 1, 3, 5 days after final treatment, P > 0.05.

Sequence of 229E S protein (P15423 16-1173 limits assumed): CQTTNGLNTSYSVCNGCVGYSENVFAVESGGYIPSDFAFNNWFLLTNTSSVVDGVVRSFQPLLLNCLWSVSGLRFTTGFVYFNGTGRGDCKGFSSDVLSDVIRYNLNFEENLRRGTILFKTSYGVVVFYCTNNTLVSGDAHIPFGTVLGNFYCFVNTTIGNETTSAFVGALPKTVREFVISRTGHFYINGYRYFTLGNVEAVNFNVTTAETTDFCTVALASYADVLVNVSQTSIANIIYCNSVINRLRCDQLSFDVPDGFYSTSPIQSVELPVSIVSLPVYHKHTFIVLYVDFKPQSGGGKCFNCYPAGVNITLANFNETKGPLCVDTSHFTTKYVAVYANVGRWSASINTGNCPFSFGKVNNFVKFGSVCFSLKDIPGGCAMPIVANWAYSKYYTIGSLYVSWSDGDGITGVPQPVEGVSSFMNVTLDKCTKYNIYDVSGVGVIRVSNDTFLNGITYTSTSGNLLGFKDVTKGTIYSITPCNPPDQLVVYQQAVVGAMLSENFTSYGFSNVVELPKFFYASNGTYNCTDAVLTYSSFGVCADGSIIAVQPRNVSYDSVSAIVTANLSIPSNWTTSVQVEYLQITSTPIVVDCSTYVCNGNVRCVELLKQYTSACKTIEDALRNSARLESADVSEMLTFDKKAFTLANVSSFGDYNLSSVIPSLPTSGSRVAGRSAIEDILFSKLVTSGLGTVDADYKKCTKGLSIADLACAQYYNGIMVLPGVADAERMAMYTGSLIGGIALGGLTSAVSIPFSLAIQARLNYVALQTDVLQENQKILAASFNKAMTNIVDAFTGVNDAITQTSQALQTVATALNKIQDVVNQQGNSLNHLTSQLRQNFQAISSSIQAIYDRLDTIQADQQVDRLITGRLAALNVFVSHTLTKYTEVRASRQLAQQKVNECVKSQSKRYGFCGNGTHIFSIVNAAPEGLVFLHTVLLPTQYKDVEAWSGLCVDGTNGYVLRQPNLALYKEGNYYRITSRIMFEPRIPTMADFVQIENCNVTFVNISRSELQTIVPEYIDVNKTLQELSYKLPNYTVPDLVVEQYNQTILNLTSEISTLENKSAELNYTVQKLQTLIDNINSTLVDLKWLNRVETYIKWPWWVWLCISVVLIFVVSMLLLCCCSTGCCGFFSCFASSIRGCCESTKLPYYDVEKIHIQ
Sequence of NL63 S protein (Q6Q1S2 19-1338 limits assumed): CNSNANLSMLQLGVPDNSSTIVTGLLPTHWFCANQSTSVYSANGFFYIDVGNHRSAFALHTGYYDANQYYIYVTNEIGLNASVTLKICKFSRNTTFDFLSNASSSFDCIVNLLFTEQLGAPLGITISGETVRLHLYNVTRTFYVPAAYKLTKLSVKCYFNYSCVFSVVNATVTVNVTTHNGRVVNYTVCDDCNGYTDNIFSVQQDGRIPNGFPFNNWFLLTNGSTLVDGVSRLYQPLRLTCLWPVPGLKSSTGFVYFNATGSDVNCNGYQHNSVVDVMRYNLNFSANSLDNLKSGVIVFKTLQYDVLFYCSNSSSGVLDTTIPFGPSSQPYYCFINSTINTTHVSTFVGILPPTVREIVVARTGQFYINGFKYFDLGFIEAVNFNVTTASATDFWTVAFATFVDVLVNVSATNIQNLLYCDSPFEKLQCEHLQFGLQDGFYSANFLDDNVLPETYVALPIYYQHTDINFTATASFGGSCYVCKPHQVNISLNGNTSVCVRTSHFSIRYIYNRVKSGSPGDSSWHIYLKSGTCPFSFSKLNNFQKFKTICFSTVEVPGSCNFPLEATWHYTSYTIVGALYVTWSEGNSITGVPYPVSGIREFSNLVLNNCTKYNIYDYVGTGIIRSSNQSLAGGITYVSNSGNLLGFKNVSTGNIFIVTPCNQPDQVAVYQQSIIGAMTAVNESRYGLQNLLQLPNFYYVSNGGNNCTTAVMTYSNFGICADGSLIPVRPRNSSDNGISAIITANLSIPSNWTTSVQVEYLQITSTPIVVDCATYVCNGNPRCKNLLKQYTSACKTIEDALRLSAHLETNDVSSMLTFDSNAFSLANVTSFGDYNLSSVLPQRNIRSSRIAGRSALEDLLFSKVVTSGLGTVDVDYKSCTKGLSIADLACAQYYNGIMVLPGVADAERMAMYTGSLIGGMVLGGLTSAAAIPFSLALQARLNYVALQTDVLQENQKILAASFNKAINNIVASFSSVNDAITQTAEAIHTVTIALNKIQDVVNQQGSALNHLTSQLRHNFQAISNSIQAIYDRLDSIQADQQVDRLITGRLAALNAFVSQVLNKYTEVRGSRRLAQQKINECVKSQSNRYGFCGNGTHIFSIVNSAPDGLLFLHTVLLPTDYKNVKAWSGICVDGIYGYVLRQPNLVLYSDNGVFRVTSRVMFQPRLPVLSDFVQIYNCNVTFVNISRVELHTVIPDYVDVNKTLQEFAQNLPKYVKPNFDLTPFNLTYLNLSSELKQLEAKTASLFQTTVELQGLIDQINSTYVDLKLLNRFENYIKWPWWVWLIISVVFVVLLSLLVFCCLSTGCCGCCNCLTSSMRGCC
Sequence of OC43 S protein (P36334 14-1336 limits assumed): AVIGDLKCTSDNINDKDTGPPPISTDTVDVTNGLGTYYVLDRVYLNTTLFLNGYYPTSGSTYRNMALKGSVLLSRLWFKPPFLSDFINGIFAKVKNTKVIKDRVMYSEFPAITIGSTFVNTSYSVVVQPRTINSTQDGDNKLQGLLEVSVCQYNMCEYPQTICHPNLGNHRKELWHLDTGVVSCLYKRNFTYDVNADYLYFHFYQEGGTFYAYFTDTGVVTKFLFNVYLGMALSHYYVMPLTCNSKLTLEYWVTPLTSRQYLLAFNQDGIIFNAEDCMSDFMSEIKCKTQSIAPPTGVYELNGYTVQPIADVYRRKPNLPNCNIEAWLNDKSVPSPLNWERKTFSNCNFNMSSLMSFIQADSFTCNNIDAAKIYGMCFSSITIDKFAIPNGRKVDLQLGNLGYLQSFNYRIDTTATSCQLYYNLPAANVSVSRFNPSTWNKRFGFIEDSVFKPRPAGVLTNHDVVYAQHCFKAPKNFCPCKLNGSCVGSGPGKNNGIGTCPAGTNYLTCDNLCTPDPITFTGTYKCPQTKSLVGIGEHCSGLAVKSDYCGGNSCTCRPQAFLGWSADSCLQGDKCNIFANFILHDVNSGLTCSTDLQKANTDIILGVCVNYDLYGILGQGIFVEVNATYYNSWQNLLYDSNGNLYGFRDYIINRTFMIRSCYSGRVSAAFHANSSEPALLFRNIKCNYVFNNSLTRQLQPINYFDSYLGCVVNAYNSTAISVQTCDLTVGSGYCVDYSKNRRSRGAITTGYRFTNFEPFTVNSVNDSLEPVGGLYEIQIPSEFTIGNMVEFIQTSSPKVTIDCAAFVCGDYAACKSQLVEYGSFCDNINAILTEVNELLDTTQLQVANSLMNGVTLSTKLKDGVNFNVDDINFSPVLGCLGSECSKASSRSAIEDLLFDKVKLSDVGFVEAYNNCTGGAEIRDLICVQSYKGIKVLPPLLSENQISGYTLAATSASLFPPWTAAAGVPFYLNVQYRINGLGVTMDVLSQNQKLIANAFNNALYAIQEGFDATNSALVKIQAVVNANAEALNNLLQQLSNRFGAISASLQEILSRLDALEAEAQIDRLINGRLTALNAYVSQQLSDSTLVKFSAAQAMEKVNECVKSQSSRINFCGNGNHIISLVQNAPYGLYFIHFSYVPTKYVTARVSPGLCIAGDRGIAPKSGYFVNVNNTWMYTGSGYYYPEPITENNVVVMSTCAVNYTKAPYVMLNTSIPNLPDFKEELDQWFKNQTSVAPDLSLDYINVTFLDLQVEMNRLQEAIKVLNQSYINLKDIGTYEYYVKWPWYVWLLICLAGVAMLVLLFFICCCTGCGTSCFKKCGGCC

As a reminder, the IC50 is the concentration needed to halve the response being measured. In the case of `CC[C@H](C)[C@H](NC(=O)[C@H](CC(=O)O)NC(=O)[C@H](CCCCN)NC(=O)[C@H](CC(C)C)NC(=O)[C@H](CC(N)=O)NC(=O)[C@@H](NC(=O)[C@H](Cc1ccc(O)cc1)NC(=O)[C@H](CO)NC(=O)[C@H](CCC(N)=O)NC(=O)[C@H](CC(N)=O)NC(=O)[C@H](CC(C)C)NC(=O)[C@@H](NC(=O)[C@H](CCCCN)NC(=O)[C@@H](NC(=O)[C@H](C)NC(=O)[C@H](CCC(=O)O)NC(=O)[C@H](CCC(N)=O)NC(=O)[C@H](CC(C)C)NC(=O)[C@H](CCCNC(=N)N)NC(=O)[C@H](CC(N)=O)NC(=O)[C@H](CCSC)NC(=O)[C@H](CCC(=O)O)NC(=O)[C@H](CC(=O)O)NC(=O)[C@H](CCC(N)=O)NC(=O)[C@H](CC(C)C)NC(=O)[C@H](CC(=O)O)NC(=O)[C@H](CC(C)C)NC(=O)[C@H](Cc1ccccc1)NC(=O)[C@@H](NC(=O)[C@@H](NC(=O)[C@H](CC(N)=O)NC(=O)[C@@H](NC(=O)[C@H](Cc1ccc(O)cc1)NC(=O)[C@H](CC(=O)O)NC(=O)[C@H](CC(C)C)NC(=O)[C@@H](N)CO)[C@@H](C)CC)C(C)C)[C@@H](C)O)[C@@H](C)CC)C(C)C)[C@@H](C)CC)C(=O)O` [OC43-HR2P], the half-inhibitory concentration (IC50) is 840 nM against 229E S protein (Inhibitory activity of peptides, IC50, HCoV-229E cell-cell fusion assay); 940 nM against NL63 S protein (Inhibitory activity of peptides, IC50, HCoV-NL63 cell-cell fusion assay); 660 nM against OC43 S protein; 930 nM in the series with OC43.
As to `CC[C@H](C)[C@H](NC(=O)[C@H](C)NC(=O)[C@H](CCC(=O)O)NC(=O)[C@H](CCC(=O)O)NC(=O)[C@H](CC(C)C)NC(=O)[C@H](CCCCN)NC(=O)[C@H](CCCCN)NC(=O)[C@H](CCSC)NC(=O)[C@H](CCC(=O)O)NC(=O)[C@H](Cc1ccc(O)cc1)NC(=O)[C@H](CCC(=O)O)NC(=O)[C@H](CC(C)C)NC(=O)[C@H](CC(=O)O)NC(=O)[C@H](CC(C)C)NC(=O)[C@H](Cc1ccccc1)NC(=O)[C@@H](NC(=O)[C@@H](NC(=O)[C@H](CC(N)=O)NC(=O)[C@@H](NC(=O)[C@H](CCC(N)=O)NC(=O)[C@H](CC(=O)O)NC(=O)[C@H](CC(C)C)NC(=O)[C@@H](N)CO)[C@@H](C)CC)C(C)C)[C@@H](C)O)C(=O)N[C@@H](CCCCN)C(=O)N[C@@H](CCCCN)C(=O)N[C@@H](CC(C)C)C(=O)N[C@@H](CCC(=O)O)C(=O)N[C@@H](CCC(=O)O)C(=O)N[C@@H](CO)C(=O)N[C@@H](Cc1ccc(O)cc1)C(=O)N[C@H](C(=O)N[C@@H](CC(=O)O)C(=O)N[C@@H](CC(C)C)C(=O)N[C@@H](CCCCN)C(=O)N[C@@H](CCC(=O)O)C(=O)N[C@@H](CC(C)C)C(=O)O)[C@@H](C)CC` [EK1], the IC50 was determined as 3350 nM in the series on pseudotyped 229E; 6020 nM with pseudotyped NL63; 1810 nM with pseudotyped OC43; 620 nM in the series on OC43; 690 nM in the series on 229E; 480 nM with NL63. Moreover, where the note is “2 weeks after intranasal administration”, the “EK1-specific antibodies in sera (ELISA)” value is recorded as “No EK1-specific antibodies were detected”. Besides, the “weight gain/loss compared to PBS-treated mice” value (20 or 100 mg/kg intranasal every day for 1 week, followed 2 weeks) was “no apparent difference”. For the same compound, the “histopathology of lung, liver, kidney, and spleen sections” value (hematoxylin and eosin, 4 weeks after administration) is on record as “no pathological abnormality”. Under setting [5], the “alanine aminotransferase (ALT) in sera versus PBS-treated group” value is “no significant difference”. In addition, under setting [5], the “creatinine in sera versus PBS-treated group” value is on record as “no significant difference”.
Take `CC[C@H](C)[C@H](NC(=O)[C@H](C)NC(=O)[C@H](CC(=O)O)NC(=O)[C@H](CC(N)=O)NC(=O)[C@@H](NC(=O)CNC(=O)[C@@H](NC(=O)[C@H](Cc1ccccc1)NC(=O)[C@H](C)NC(=O)[C@H](CC(=O)O)NC(=O)[C@@H](NC(=O)[C@@H](NC(=O)[C@H](CC(N)=O)NC(=O)[C@@H](NC(=O)[C@H](CCSC)NC(=O)[C@H](C)NC(=O)[C@H](CCCCN)NC(=O)[C@H](CC(N)=O)NC(=O)[C@H](Cc1ccccc1)NC(=O)[C@H](CO)NC(=O)[C@H](C)NC(=O)[C@H](C)N)[C@@H](C)O)[C@@H](C)CC)C(C)C)[C@@H](C)O)C(C)C)C(=O)N[C@H](C(=O)N[C@@H](CCC(N)=O)C(=O)N[C@H](C(=O)N[C@@H](CO)C(=O)N[C@@H](CCC(N)=O)C(=O)N[C@@H](C)C(=O)N[C@@H](CC(C)C)C(=O)N[C@@H](CCC(N)=O)C(=O)N[C@H](C(=O)N[C@H](C(=O)N[C@@H](C)C(=O)N[C@H](C(=O)N[C@@H](C)C(=O)N[C@@H](CC(C)C)C(=O)N[C@@H](CC(N)=O)C(=O)N[C@@H](CCCCN)C(=O)N[C@H](C(=O)N[C@@H](CCC(N)=O)C(=O)N[C@@H](CC(=O)O)C(=O)N[C@H](C(=O)N[C@H](C(=O)N[C@@H](CC(N)=O)C(=O)N[C@@H](CCC(N)=O)C(=O)N[C@@H](CCC(N)=O)C(=O)NCC(=O)N[C@@H](CC(N)=O)C(=O)N[C@@H](CO)C(=O)N[C@@H](CC(C)C)C(=O)N[C@@H](CC(N)=O)C(=O)N[C@@H](Cc1c[nH]cn1)C(=O)N[C@@H](CC(C)C)C(=O)N[C@H](C(=O)N[C@@H](CO)C(=O)N[C@@H](CCC(N)=O)C(=O)O)[C@@H](C)O)C(C)C)C(C)C)[C@@H](C)CC)[C@@H](C)O)C(C)C)[C@@H](C)O)[C@@H](C)O)[C@@H](C)O` [229E-HR1P]: at 229E S protein, the “Inhibitory effects on 229E-S-mediated cell-cell fusion” value was “moderate inhibitory effects”. The “Inhibitory effects on NL63-S-mediated cell-cell fusion” value on NL63 S protein is recorded as “moderate inhibitory effects”.
With `CC[C@H](C)[C@H](NC(=O)[C@H](CC(N)=O)NC(=O)[C@H](CC(=O)O)NC(=O)[C@@H](NC(=O)[C@H](CC(C)C)NC(=O)[C@@H](NC(=O)[C@H](CCC(N)=O)NC(=O)[C@H](CC(C)C)NC(=O)[C@H](CCCCN)NC(=O)[C@H](CCC(N)=O)NC(=O)[C@@H](NC(=O)[C@@H](NC(=O)[C@H](Cc1ccc(O)cc1)NC(=O)[C@H](CC(N)=O)NC(=O)[C@H](CC(C)C)NC(=O)[C@H](CCC(=O)O)NC(=O)[C@H](C)NC(=O)[C@H](CO)NC(=O)[C@H](CCCCN)NC(=O)[C@H](CC(N)=O)NC(=O)[C@H](CCC(=O)O)NC(=O)[C@H](CC(C)C)NC(=O)[C@@H](NC(=O)[C@H](CO)NC(=O)[C@@H](NC(=O)[C@H](CCC(=O)O)NC(=O)[C@H](CO)NC(=O)[C@@H](NC(=O)[C@H](CC(C)C)NC(=O)[C@H](CC(N)=O)NC(=O)[C@H](CC(C)C)NC(=O)[C@@H](NC(=O)[C@@H](NC(=O)[C@H](CCC(N)=O)NC(=O)[C@H](CC(N)=O)NC(=O)[C@H](Cc1ccc(O)cc1)NC(=O)[C@H](CCC(N)=O)NC(=O)[C@H](CCC(=O)O)NC(=O)[C@@H](NC(=O)[C@@H](N)C(C)C)C(C)C)[C@@H](C)O)[C@@H](C)CC)[C@@H](C)O)[C@@H](C)CC)[C@@H](C)O)[C@@H](C)O)C(C)C)[C@@H](C)O)[C@@H](C)CC)C(=O)N[C@@H](CC(N)=O)C(=O)N[C@@H](CO)C(=O)N[C@H](C(=O)N[C@@H](CC(C)C)C(=O)N[C@H](C(=O)N[C@@H](CC(=O)O)C(=O)N[C@@H](CC(C)C)C(=O)N[C@@H](CCCCN)C(=O)N[C@@H](Cc1c[nH]c2ccccc12)C(=O)N[C@@H](CC(C)C)C(=O)O)C(C)C)[C@@H](C)O` [229E-HR2P], in series [1], the “Inhibitory activity against β-HCoVs (MERS-CoV, SARS-CoV, OC43) S-mediated fusion” value is “no effective inhibitory activity”. This compound registered an IC50 in the series on 229E of 560 nM.
On to `CC[C@H](C)[C@H](NC(=O)[C@H](CC(C)C)NC(=O)CNC(=O)[C@H](CCC(N)=O)NC(=O)[C@H](CC(C)C)NC(=O)[C@H](CCC(=O)O)NC(=O)[C@@H](NC(=O)[C@@H](NC(=O)[C@@H](NC(=O)[C@H](CCC(N)=O)NC(=O)[C@H](Cc1ccccc1)NC(=O)[C@H](CC(C)C)NC(=O)[C@H](CO)NC(=O)[C@H](C)NC(=O)[C@@H](NC(=O)[C@H](CCCCN)NC(=O)[C@H](C)NC(=O)[C@H](CCC(=O)O)NC(=O)[C@H](CC(C)C)NC(=O)[C@H](CCC(N)=O)NC(=O)[C@H](CCCCN)NC(=O)[C@H](CC(C)C)NC(=O)[C@H](CCC(=O)O)NC(=O)[C@H](CO)NC(=O)[C@H](CO)NC(=O)[C@H](CC(C)C)NC(=O)[C@H](CC(N)=O)NC(=O)[C@H](CC(C)C)NC(=O)[C@H](Cc1ccc(O)cc1)NC(=O)[C@@H](NC(=O)[C@H](CC(C)C)NC(=O)[C@H](CC(N)=O)NC(=O)[C@H](Cc1ccccc1)NC(=O)[C@@H]1CCCN1C(=O)[C@@H](NC(=O)[C@H](CC(C)C)NC(=O)[C@@H](N)CC(=O)O)[C@@H](C)O)[C@@H](C)O)[C@@H](C)O)[C@@H](C)O)[C@@H](C)O)C(C)C)C(=O)N[C@@H](CC(=O)O)C(=O)N[C@@H](CCC(N)=O)C(=O)N[C@H](C(=O)N[C@@H](CC(N)=O)C(=O)N[C@@H](CO)C(=O)N[C@H](C(=O)N[C@@H](Cc1ccc(O)cc1)C(=O)N[C@H](C(=O)N[C@@H](CC(=O)O)C(=O)N[C@@H](CC(C)C)C(=O)N[C@@H](CCCCN)C(=O)N[C@@H](CC(C)C)C(=O)N[C@@H](CC(C)C)C(=O)O)C(C)C)[C@@H](C)O)[C@@H](C)CC` [NL63-HR2P], for which the “Inhibitory activity against β-HCoVs (MERS-CoV, SARS-CoV, OC43) S-mediated fusion” value in series [1] is “no effective inhibitory activity”.
Take OC43-HR2P (peptide): the IC50 of inhibition of 229E S-mediated cell-cell fusion in series [2] is 840 nM. Moreover, in [3], the IC50 of inhibition of MERS-CoV S-mediated cell-cell fusion turned out to be 390 nM. The compound also registered an IC50 of inhibition of SARS-CoV S-mediated cell-cell fusion in series [4] of 540 nM.
